# Measured values from PubChem BioAssay (NCI).
#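 In this assay, cells in 96-well plates receive the compound at five concentrations for 48 hours. Endpoints are linearly interpolated between the surrounding concentrations. GI50 = concentration required for 50% inhibition of growth. TGI: concentration producing complete growth inhibition.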
# Assays:
# Test in all cases: DTP human tumour cell line panel, 48 h
# [1] = system: 786-0 renal
# [2] = system: A498 renal
# [3] = system: A549 NSCLC
# [4] = system: ACHN renal
# [5] = system: BT-549 breast
# [6] = system: CAKI-1 renal
# [7] = system: CCRF-CEM leukemia
# [8] = system: COLO 205 colon
# [9] = system: DU-145 prostate
# [10] = system: EKVX NSCLC
# [11] = system: HCC-2998 colon
# [12] = system: HCT-116 colon
# [13] = system: HCT-15 colon
# [14] = system: HL-60(TB) leukemia
# [15] = system: HOP-62 NSCLC
# [16] = system: HOP-92 NSCLC
# [17] = system: HS 578T breast
# [18] = system: HT29 colon
# [19] = system: IGROV1 ovarian
# [20] = system: K-562 leukemia
# [21] = system: KM12 colon
# [22] = system: LOX IMVI melanoma
# [23] = system: M14 melanoma
# [24] = system: MALME-3M melanoma
# [25] = system: MCF7 breast
# [26] = system: MDA-MB-231 breast
# [27] = system: MDA-MB-435
# [28] = system: MOLT-4 leukemia
# [29] = system: NCI-H226 lung
# [30] = system: NCI-H23 lung
# [31] = system: NCI-H460 lung
# [32] = system: NCI-H522 lung
# [33] = system: NCI/ADR-RES ovarian
# [34] = system: OVCAR-3 ovarian
# [35] = system: OVCAR-4 ovarian
# [36] = system: OVCAR-5 ovarian
# [37] = system: OVCAR-8 ovarian
# [38] = system: PC-3 prostate
# [39] = system: RPMI-8226 leukemia
# [40] = system: RXF 393 renal
# [41] = system: SF-268 CNS
# [42] = system: SF-295 CNS
# [43] = system: SF-539 CNS
# [44] = system: SK-MEL-2 melanoma
# [45] = system: SK-MEL-28 melanoma
# [46] = system: SK-MEL-5 melanoma
# [47] = system: SK-OV-3 ovarian
# [48] = system: SN12C renal
# [49] = system: SNB-19 CNS
# [50] = system: SNB-75 CNS
# [51] = system: SR leukemia
# [52] = system: SW-620 colon
# [53] = system: T-47D breast
# [54] = system: TK-10 renal
# [55] = system: U251 CNS
# [56] = system: UACC-257 melanoma
# [57] = system: UACC-62 melanoma
# [58] = system: UO-31 renal
smiles,measurement,setting,value
NCCCN1CCN(CCCNc2nc3ccccc3c3[nH]c4ccccc4c23)CC1,GI50,[1],0.421 µM
same,TGI,[1],2.94 µM
same,GI50,[2],1.62 µM
same,TGI,[2],3.93 µM
same,GI50,[3],0.323 µM
same,TGI,[3],2.37 µM
same,GI50,[4],0.378 µM
same,TGI,[4],3.75 µM
same,GI50,[5],2.12 µM
same,TGI,[5],5.72 µM
same,GI50,[6],0.414 µM
same,TGI,[6],3.45 µM
same,GI50,[7],0.385 µM
same,GI50,[8],0.214 µM
same,TGI,[8],1.05 µM
same,GI50,[9],0.299 µM
same,TGI,[9],7.83 µM
same,GI50,[10],1.31 µM
same,TGI,[10],6.22 µM
same,GI50,[11],0.0895 µM
same,TGI,[11],0.758 µM
same,GI50,[12],0.337 µM
same,TGI,[12],2.7 µM
same,GI50,[13],0.436 µM
same,TGI,[13],7.83 µM
same,GI50,[14],0.425 µM
same,TGI,[14],3.26 µM
same,GI50,[15],0.26 µM
same,TGI,[15],1.08 µM
same,GI50,[16],0.346 µM
same,TGI,[16],2.1 µM
same,GI50,[17],0.521 µM
same,TGI,[17],2.89 µM
same,GI50,[18],0.212 µM
same,TGI,[18],1.99 µM
same,GI50,[19],0.638 µM
same,TGI,[19],4.38 µM
same,GI50,[20],0.0715 µM
same,TGI,[20],43.1 µM
same,GI50,[21],0.415 µM
same,GI50,[22],0.409 µM
same,TGI,[22],1.81 µM
same,GI50,[23],1.27 µM
same,TGI,[23],2.76 µM
same,GI50,[24],2.3 µM
same,TGI,[24],4.96 µM
same,GI50,[25],0.181 µM
same,TGI,[25],1.33 µM
same,GI50,[26],0.456 µM
same,TGI,[26],1.72 µM
same,GI50,[27],0.651 µM
same,TGI,[27],2.41 µM
same,GI50,[28],0.155 µM
same,TGI,[28],4.02 µM
same,GI50,[29],0.442 µM
same,TGI,[29],1.1 µM
same,GI50,[30],0.387 µM
same,TGI,[30],1.44 µM
same,GI50,[31],0.32 µM
same,TGI,[31],1.42 µM
same,GI50,[32],0.242 µM
same,TGI,[32],1.31 µM
same,GI50,[33],3.1 µM
same,TGI,[33],22 µM
same,GI50,[34],0.659 µM
same,TGI,[34],4.58 µM
same,GI50,[35],0.414 µM
same,TGI,[35],1.77 µM
same,GI50,[36],0.292 µM
same,TGI,[36],1.48 µM
same,GI50,[37],0.131 µM
same,TGI,[37],3.88 µM
same,GI50,[38],0.437 µM
same,TGI,[38],2.98 µM
same,GI50,[39],0.241 µM
same,TGI,[39],0.817 µM
same,GI50,[40],0.429 µM
same,TGI,[40],1.31 µM
same,GI50,[41],0.316 µM
same,TGI,[41],1.94 µM
same,GI50,[42],0.474 µM
same,TGI,[42],1.83 µM
same,GI50,[43],0.438 µM
same,TGI,[43],1.5 µM
same,GI50,[44],0.567 µM
same,TGI,[44],1.1 µM
same,GI50,[45],0.888 µM
same,TGI,[45],2.32 µM
same,GI50,[46],1.14 µM
same,TGI,[46],2.53 µM
same,GI50,[47],6.7 µM
same,TGI,[47],41.4 µM
same,TGI,[48],1.05 µM
same,GI50,[49],0.34 µM
same,TGI,[49],2.07 µM
same,GI50,[50],0.691 µM
same,TGI,[50],1.99 µM
same,GI50,[51],0.352 µM
same,TGI,[51],71.9 µM
same,GI50,[52],0.326 µM
same,TGI,[52],7.66 µM
same,GI50,[53],0.561 µM
same,TGI,[53],6.85 µM
same,GI50,[54],0.81 µM
same,TGI,[54],11.1 µM
same,GI50,[55],0.373 µM
same,TGI,[55],4.54 µM
same,GI50,[56],2.51 µM
same,TGI,[56],5.72 µM
same,GI50,[57],0.541 µM
same,TGI,[57],1.1 µM
same,GI50,[58],0.771 µM
same,TGI,[58],11.8 µM
